The values below come from patent US11590116B2 (THERAVANCE BIOPHARMA R&D IP, LLC, priority 2019, dated 2023).

Structures are written as SMILES.

In assay [1] the target is T1, recombinant human ALK5 (TGF-βR1) protein (Homo sapiens, UniProt P36897).
T1 construct: purchased Life Technologies PR9075A
T1 sequence (P36897 34-503): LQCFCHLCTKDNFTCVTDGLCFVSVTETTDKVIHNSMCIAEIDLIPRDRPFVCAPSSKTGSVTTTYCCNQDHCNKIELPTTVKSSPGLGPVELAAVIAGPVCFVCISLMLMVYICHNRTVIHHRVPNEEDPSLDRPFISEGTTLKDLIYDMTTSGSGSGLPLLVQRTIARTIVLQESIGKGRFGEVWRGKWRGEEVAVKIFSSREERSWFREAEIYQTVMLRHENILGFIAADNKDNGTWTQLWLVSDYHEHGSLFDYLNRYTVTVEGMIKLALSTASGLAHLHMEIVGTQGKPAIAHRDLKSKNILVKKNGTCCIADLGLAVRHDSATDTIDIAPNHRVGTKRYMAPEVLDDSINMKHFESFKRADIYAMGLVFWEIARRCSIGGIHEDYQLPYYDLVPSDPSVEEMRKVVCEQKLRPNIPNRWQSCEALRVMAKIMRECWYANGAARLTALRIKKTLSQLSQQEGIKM
Briefly: Biochemical ALK5 (TGF-βR1) assay to measure pKi (LANCE Ultra ULight kinase assay). Conditions: apparent pKi from pIC50 by Cheng-Prusoff, read-out: ALK5 pKi (converted). An outline of the steps: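 Dose range 10 μM–25 pM; enzyme + compound 60 min RT; ATP added (5× stock 125 μM, 2 mM DTT); 60 min 37 °C; stop with EDTA + Eu anti-phospho-Topo IIα Thr1342 Ab; TR-FRET ex 320/340, em 665 nm. 4-param pIC50 → pKi (Cheng-Prusoff).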
(In general: TR-FRET usually uses a lanthanide donor and a delayed reading to cut background.)

In assay [2] the test system is TGF-β-stimulated SMAD3 phosphorylation in BEAS-2B cells. The assay is described as follows: Cellular ALK5 potency assay, inhibition of TGF-β stimulated pSMAD3 formation in BEAS-2B cells. Format: cell-based. Conditions: Homo sapiens; inhibition of TGF-β stimulated pSMAD3 formation, BEAS-2B cells; read-out: BEAS2B pIC50 (converted). An outline of the steps: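 Potency is reported as pIC50, derived from concentration-dependent reduction of pSMAD3 AlphaLISA signal against TGF-β-stimulated cells without compound. BEAS-2B cells received compound for 1 h before a 30-min stimulation with 10 ng/mL TGF-β.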

For the molecule `Cc1cccc(-c2n[nH]cc2-c2ccc3ncc(N4CCC(N5CCOCC5)CC4)cc3n2)n1` [Compound 250, 4-[1-[6-[3-(6-methyl-2-pyridyl)-1H-pyrazol-4-yl]-1,5-naphthyridin-3-yl]-4-piperidyl]morpholine], the Ki in assay [1] is less than 0.0316 nM. The IC50 in assay [2] is 25.1 to 158 nM.

As to `Cc1nc(-c2n[nH]cc2-c2ccc3ncc(-c4cnn([C@@H]5CCCC[C@H]5N)c4)cc3n2)ccc1F` [Compound 490, (1R,2R)-2-(4-(6-(3-(5-fluoro-6-methylpyridin-2-yl)-1H-pyrazol-4-yl)-1,5-naphthyridin-3-yl)-1H-pyrazol-1-yl)cyclohexan-1-amine], the Ki in assay [1] was less than 0.0316 nM. For the same molecule, the IC50 in assay [2] is less than 20 nM.

`Cc1cccc(-c2[nH]ncc2-c2ccc3ncc(C(=O)OCCC4CCNC4)cc3c2)n1` (stereo not shown) [Compound 1164, 2-pyrrolidin-3-ylethyl 6-[5-(6-methyl-2-pyridyl)-1H-pyrazol-4-yl]quinoline-3-carboxylate]: the Ki in assay [1] is 0.0398 to 0.316 nM. Besides, the IC50 in assay [2] was 25.1 to 158 nM.

With `COC(=O)c1coc(-c2ccnc3ccc(-c4c[nH]nc4-c4cccc(C)n4)nc23)n1` [Compound 817, methyl 2-[6-[3-(6-methyl-2-pyridyl)-1H-pyrazol-4-yl]-1,5-naphthyridin-4-yl]oxazole-4-carboxylate], the Ki in assay [1] is 0.398 to 3.16 nM. Besides, in assay [2], the IC50 was 200 to 1260 nM.

Consider `Cc1cccc(-c2n[nH]cc2-c2ccc3ncc(NCCN4C(C)CNCC4C)cc3n2)n1` (stereo not shown) [Compound 183, N-[2-(2,6-dimethylpiperazin-1-yl)ethyl]-6-[3-(6-methyl-2-pyridyl)-1H-pyrazol-4-yl]-1,5-naphthyridin-3-amine], for which the Ki in assay [1] is 0.0398 to 0.316 nM. In assay [2], the IC50 was 200 to 1260 nM.

Turning to `Cc1nc(-c2n[nH]cc2-c2ccc3ncc(N4CCCNCC4)cc3n2)ccc1F` [Compound 318, 7-(1,4-diazepan-1-yl)-2-[3-(5-fluoro-6-methyl-2-pyridyl)-1H-pyrazol-4-yl]-1,5-naphthyridine], the Ki in assay [1] is 0.0398 to 0.316 nM. Besides, the IC50 in assay [2] is 25.1 to 158 nM.

For `Cc1cccc(-c2n[nH]cc2-c2ccc3ncc(N4CCNC[C@H]4C)cc3n2)n1` [Compound 271, 7-[(2R)-2-methylpiperazin-1-yl]-2-[3-(6-methyl-2-pyridyl)-1H-pyrazol-4-yl]-1,5-naphthyridine], in assay [1], the Ki was 0.0398 to 0.316 nM. In assay [2], the IC50 is 25.1 to 158 nM.

`Cc1cccc(-c2n[nH]cc2-c2ccc3ncc(C(=O)NCCCN4CCN(C(C)C)CC4)cc3n2)n1` [Compound 55, N-[3-(4-isopropylpiperazin-1-yl)propyl]-6-[3-(6-methyl-2-pyridyl)-1H-pyrazol-4-yl]-1,5-naphthyridine-3-carboxamide]: in assay [1], the Ki is 0.0398 to 0.316 nM. In addition, the IC50 in assay [2] is 200 to 1260 nM.

Consider `Cc1cccc(-c2n[nH]cc2-c2ccc3ncc(N4CCC(N(C)C)CC4)cc3n2)n1` [Compound 141, N,N-dimethyl-1-[6-[3-(6-methyl-2-pyridyl)-1H-pyrazol-4-yl]-1,5-naphthyridin-3-yl]piperidin-4-amine], for which, in assay [1], the Ki was less than 0.0316 nM. In addition, in assay [2], the IC50 was 25.1 to 158 nM.

For the molecule `Cc1cccc(-c2[nH]cnc2-c2ccc3ncc(C4=CCC(NC(C)C)CC4)cc3c2)n1` (stereo not shown) [Compound 540, N-isopropyl-4-[6-[5-(6-methyl-2-pyridyl)-1H-imidazol-4-yl]-3-quinolyl]cyclohex-3-en-1-amine], in assay [1], the Ki was less than 0.0316 nM. The IC50 in assay [2] is 25.1 to 158 nM.

With `Cc1cccc(-c2[nH]cnc2-c2ccc3ncc(NCCN4CCCC4)cc3c2)n1` [Compound 30, 6-[5-(6-methyl-2-pyridyl)-1H-imidazol-4-yl]-N-(2-pyrrolidin-1-ylethyl)quinolin-3-amine], in assay [1], the Ki was 0.0398 to 0.316 nM. Also, the IC50 in assay [2] was 25.1 to 158 nM.

For the molecule `Cc1cccc(-c2[nH]cnc2-c2ccc3ncc(-c4cn5c(n4)CNCC5)cc3n2)n1` [Compound 414, 2-(5-(6-methylpyridin-2-yl)-1H-imidazol-4-yl)-7-(5,6,7,8-tetrahydroimidazo[1,2-a]pyrazin-2-yl)-1,5-naphthyridine], in assay [1], the Ki was 0.0398 to 0.316 nM. Besides, the IC50 in assay [2] is 25.1 to 158 nM.

For `Cc1cccc(-c2[nH]cnc2-c2ccc3ncc(NCCN(C)C4CNC4)cc3c2)n1` [Compound 593, N′-(azetidin-3-yl)-N′-methyl-N-[6-[5-(6-methyl-2-pyridyl)-1H-imidazol-4-yl]-3-quinolyl]ethane-1,2-diamine], the Ki in assay [1] was 0.0398 to 0.316 nM. Further, the IC50 in assay [2] was 200 to 1260 nM.

For `CCC(=O)Nc1cnc2ccc(-c3c[nH]nc3-c3cccc(C)n3)nc2c1` [Compound 234, N-[6-[3-(6-methyl-2-pyridyl)-1H-pyrazol-4-yl]-1,5-naphthyridin-3-yl]propanamide], the Ki in assay [1] is less than 0.0316 nM. The IC50 in assay [2] is less than 20 nM.

In the case of `Cc1cccc(-c2n[nH]cc2-c2ccc3ncc(N(C)CCN4CCOCC4)cc3n2)n1` [Compound 103, N-methyl-6-[3-(6-methyl-2-pyridyl)-1H-pyrazol-4-yl]-N-(2-morpholinoethyl)-1,5-naphthyridin-3-amine], in assay [1], the Ki is 0.0398 to 0.316 nM. In addition, in assay [2], the IC50 is 25.1 to 158 nM.

Turning to `Cc1cccc(-c2[nH]cnc2-c2ccc3ncc(-c4ccc(C(=O)OCCN5CCN6CCCC6C5)cn4)cc3c2)n1` (stereo not shown) [Compound 1212, 2-(3,4,6,7,8,8a-hexahydro-1H-pyrrolo[1,2-a]pyrazin-2-yl)ethyl 6-[6-[5-(6-methyl-2-pyridyl)-1H-imidazol-4-yl]-3-quinolyl]pyridine-3-carboxylate], in assay [1], the Ki was 0.0398 to 0.316 nM. Also, the IC50 in assay [2] was 25.1 to 158 nM.

Take `Cc1cccc(-c2n[nH]cc2-c2ccc3ncc(N4CCN5CCCC5C4)cc3n2)n1` (stereo not shown) [Compound 74, 7-(3,4,6,7,8,8a-hexahydro-1H-pyrrolo[1,2-a]pyrazin-2-yl)-2-[3-(6-methyl-2-pyridyl)-1H-pyrazol-4-yl]-1,5-naphthyridine]: the Ki in assay [1] is less than 0.0316 nM. Also, the IC50 in assay [2] is 25.1 to 158 nM.

In the case of `Cc1cccc(-c2[nH]cnc2-c2ccc3ncc(C4=CC(C)(C)NC(C)(C)C4)cc3c2)n1` [Compound 117, 6-[5-(6-methyl-2-pyridyl)-1H-imidazol-4-yl]-3-(2,2,6,6-tetramethyl-1,3-dihydropyridin-4-yl)quinoline], in assay [1], the Ki was 0.398 to 3.16 nM. In addition, the IC50 in assay [2] was 25.1 to 158 nM.

Regarding `Cc1cccc(-c2n[nH]cc2-c2ccc3nccc(N4CCC(N5CCN(C)CC5)CC4)c3n2)n1` [Compound 845, 8-[4-(4-methylpiperazin-1-yl)-1-piperidyl]-2-[3-(6-methyl-2-pyridyl)-1H-pyrazol-4-yl]-1,5-naphthyridine], the Ki in assay [1] was 0.398 to 3.16 nM. Also, the IC50 in assay [2] is 200 to 1260 nM.

Take `COC[C@H]1CN(CCNc2cnc3ccc(-c4nc[nH]c4-c4cccc(C)n4)cc3c2)CCN1` [Compound 37, N-[2-[(3R)-3-(methoxymethyl)piperazin-1-yl]ethyl]-6-[5-(6-methyl-2-pyridyl)-1H-imidazol-4-yl]quinolin-3-amine]: in assay [1], the Ki was 0.0398 to 0.316 nM. The IC50 in assay [2] was 25.1 to 158 nM.

In the case of `Cc1cccc(-c2[nH]cnc2-c2ccc3ncc(-c4ccc(CN5C[C@@H](C)N[C@@H](C)C5)nc4)cc3c2)n1` [Compound 1045, 3-(6-(((3S,5R)-3,5-dimethylpiperazin-1-yl)methyl)pyridin-3-yl)-6-(5-(6-methylpyridin-2-yl)-1H-imidazol-4-yl)quinoline], in assay [1], the Ki was 0.0398 to 0.316 nM. The IC50 in assay [2] was 25.1 to 158 nM.

As to `Cc1cccc(-c2n[nH]cc2-c2ccc3ncc(-c4cc5n(n4)CCNC5)cc3n2)n1` [Compound 83, 2-[3-(6-methyl-2-pyridyl)-1H-pyrazol-4-yl]-7-(4,5,6,7-tetrahydropyrazolo[1,5-a]pyrazin-2-yl)-1,5-naphthyridine], the Ki in assay [1] was less than 0.0316 nM. For the same molecule, in assay [2], the IC50 was less than 20 nM.

For `Cc1cccc(-c2n[nH]cc2-c2ccc3ncc(-c4c(C)nn(C)c4C)cc3n2)n1` [Compound 426, 2-[3-(6-methyl-2-pyridyl)-1H-pyrazol-4-yl]-7-(1,3,5-trimethylpyrazol-4-yl)-1,5-naphthyridine], the Ki in assay [1] is 0.0398 to 0.316 nM. In assay [2], the IC50 was 25.1 to 158 nM.

On to `Cc1cccc(-c2[nH]cnc2-c2ccc3ncc(Nc4nc5n(n4)CCN(C(C)C)C5)cc3c2)n1` [Compound 128, N-(7-isopropyl-6,8-dihydro-5H-[1,2,4]triazolo[1,5-a]pyrazin-2-yl)-6-[5-(6-methyl-2-pyridyl)-1H-imidazol-4-yl]quinolin-3-amine], for which the Ki in assay [1] was 0.0398 to 0.316 nM. In addition, the IC50 in assay [2] was 25.1 to 158 nM.

As for `Cc1cccc(-c2n[nH]cc2-c2ccc3ncc(N4CCCNCC4)cc3n2)n1` [Compound 349, 7-(1,4-diazepan-1-yl)-2-[3-(6-methyl-2-pyridyl)-1H-pyrazol-4-yl]-1,5-naphthyridine], the Ki in assay [1] was 0.0398 to 0.316 nM. In assay [2], the IC50 is 25.1 to 158 nM.

For the molecule `Cc1cccc(-c2[nH]cnc2-c2ccc3ncc(-c4cncc(C(=O)O[C@@H]5CCNC5)c4)cc3c2)n1` [Compound 725, [(3R)-pyrrolidin-3-yl] 5-[6-[5-(6-methyl-2-pyridyl)-1H-imidazol-4-yl]-3-quinolyl]pyridine-3-carboxylate], in assay [1], the Ki is 0.0398 to 0.316 nM. Also, the IC50 in assay [2] is 25.1 to 158 nM.
